Experiments:
[1] = Preventive effect against the growth of Ehrlich ascites carcinoma (Method A); type: in vivo, mice (ICR, female); settings: mouse, in vivo, ip; max dose, 100% inhibition without death; doses of the table in mg/kg/day; read-out: MTD (Maximum Tolerated Dose)
Description: (§1) (A) Preventive effect against the growth of Ehrlich ascites tumor
(§2) 10^6 tumor cells of Ehrlich ascites carcinoma were inoculated intraperitoneally into a group of five femal mice (ICR mice, body weight: 19-23 g). A test compound was dissolved in a physiological saline solution and administered intraperitoneally to the mice. The administration of the test compound was began 24 hours after the inoculation of the tumor cells and performed once a day for 5 days. The volume of ascites in the treated mice were measured after 7 days of the experiment.

[2] = system: Ehrlich ascites carcinoma; assay: as above; type: in vivo, mice (ICR, female); settings: for inhibition in vivo at 0.39 mg/kg: 0.39 mg/kg/day i.p.; for inhibition in vivo at 0.78 mg/kg: 0.78 mg/kg/day i.p.; for inhibition in vivo at 1.56 mg/kg: 1.56 mg/kg/day i.p.; for inhibition in vivo at 6.25 mg/kg: 6.25 mg/kg/day i.p.; for inhibition in vivo at 25 mg/kg: 25 mg/kg/day i.p.; for inhibition in vivo at 400 mg/kg: 400 mg/kg/day i.p.; for minimal effective dose: 168 h, min dose, 100% inhibition, doses of the table in mg/kg/day, read-out: MED (Minimum Effective Dose); for inhibition in vivo at 0.19 mg/kg: 0.19 mg/kg/day i.p.
Description: as §1, §2

[3] = system: Leukemia L-1210; assay: Effect on life span of mice implanted with leukemic cells of L-1210 (Method B); type: in vivo, mice (BDF1, male); settings: 5 days
Description: (B) Effect on the life span of mice implanted with leukemic cells of L-1210
10^5 leukemic cells of L-1210 were inoculated intraperitoneally into a group of four male mice (BDF1 mice, body weight: 19-23 g). A test compound was dissolved in a physiological saline solution and administered intraperitoneally to the mice. The administration of the test compound was began 24 hours after the inoculation of the leukemic cells and performed once a day for 5 days. The survival days of the treated mice were observed.

[4] = Mus musculus, Ehrlich, ip, 120 h, 5 days, read-out: Inhibition ratio
[5] = Mus musculus, Ehrlich, ip, 120 h, 100 mg/kg/day i.p., 5 days, read-out: Inhibition ratio

| Compound | MTD at 168 h [1] [mg/kg/day] | Toxic (number of mice died/number of mice used) ([2]; 800 mg/kg/day i.p., 5 days) | Therapeutic index (MTD/MED) [2] | inhibition in vivo at 0.39 mg/kg [2, 4] [%] | inhibition in vivo at 0.78 mg/kg [2, 4] [%] | inhibition in vivo at 1.56 mg/kg [2, 4] [%] | inhibition in vivo at 6.25 mg/kg [2, 4] [%] | inhibition in vivo at 25 mg/kg [2, 4] [%] | inhibition in vivo at 100 mg/kg [2, 5] [%] | inhibition in vivo at 400 mg/kg [2, 4] [%] | minimal effective dose ([2]; Mus musculus, Ehrlich, ip) [mg/kg/day] | Toxic (number of mice died/number of mice used) ([2]; 200 mg/kg/day i.p., 5 days) | inhibition in vivo at 0.19 mg/kg [2, 4] [%] | further results |
| --- | --- | --- | --- | --- | --- | --- | --- | --- | --- | --- | --- | --- | --- | --- |
| O=NN(CCCl)C(=O)N(Cc1ccccc1)C1O[C@H](CO)[C@@H](O[C@H]2O[C@H](CO)[C@@H](O)[C@H](O)[C@H]2O)[C@H](O)[C@H]1O (stereo partly drawn) [Compound 1, 1-(2-chloroethyl)-1-nitroso-3-benzyl-3-[O-α-D-glucopyranosyl-(1→4)-D-glucopyranosyl]urea] | 400 | 5/5 | 256 | 9.3 | 66.7 | 100 | 100 | 100 | 100 | 100 | 1.56 |  |  | 60-day survivors (mice survived/mice used) ([3]; 25 mg/kg/day i.p.): 0/4; ILS ([3]; 25 mg/kg/day i.p.): 55.2%; 60-day survivors (mice survived/mice used) ([3]; 100 mg/kg/day i.p.): 1/4; ILS ([3]; 100 mg/kg/day i.p.): > 236.8%; 60-day survivors (mice survived/mice used) ([3]; 200 mg/kg/day i.p.): 4/4; ILS ([3]; 200 mg/kg/day i.p.): > 589.7% |
| O=NN(CCCl)C(=O)N(Cc1cccs1)C1O[C@H](CO)[C@@H](O[C@H]2O[C@H](CO)[C@@H](O)[C@H](O)[C@H]2O)[C@H](O)[C@H]1O (stereo partly drawn) [Compound 7, 1-(2-chloroethyl)-1-nitroso-3-(thiophen-2-yl-methyl)-3-[O-α-D-glucopyranosyl-(1→4)-D-glucopyranosyl]urea] | 400 | 5/5 | 256 | 6.2 | 31.2 | 100 | 100 | 100 | 100 | 100 | 1.56 |  |  |  |
| O=NN(CCCl)C(=O)N(Cc1ccccc1)C1OC[C@H](O)[C@H](O)[C@H]1O (stereo partly drawn) [Compound 11, 1-(2-chloroethyl)-1-nitroso-3-benzyl-3-(L-arabinopyranosyl)urea] | 100 |  | 128 | 65.3 | 100 | 100 | 100 | 100 | 100 |  | 0.78 | 5/5 | 18.4 |  |
| O=NN(CCCl)C(=O)N(CC1CO1)C1OC[C@H](O)[C@H](O)[C@H]1O (stereo partly drawn) [Compound 12, 1-(2-chloroethyl)-1-nitroso-3-(oxiran-2-yl-methyl)-3-(L-arabinopyranosyl)urea] | 50 |  | 128 | 100 | 100 |  |  |  |  |  | 0.39 |  | 20.9 | Toxic (number of mice died/number of mice used) ([2]; 100 mg/kg/day i.p., 5 days): 5/5; inhibition in vivo at 3.12 mg/kg ([2]; Mus musculus, Ehrlich, ip, 120 h, 3.12 mg/kg/day i.p., 5 days, read-out: Inhibition ratio): 100%; inhibition in vivo at 12.5 mg/kg ([2]; Mus musculus, Ehrlich, ip, 120 h, 12.5 mg/kg/day i.p., 5 days, read-out: Inhibition ratio): 100%; inhibition in vivo at 50 mg/kg ([2]; Mus musculus, Ehrlich, ip, 120 h, 50 mg/kg/day i.p., 5 days, read-out: Inhibition ratio): 100% |
| O=NN(CCCl)C(=O)N(Cc1ccco1)C1O[C@H](CO)[C@@H](O)[C@H]1O (stereo partly drawn) [Compound 14, 1-(2-chloroethyl)-1-nitroso-3-furfuryl-3-(D-ribofuranosyl)urea] | 100 |  | 64 | 18.4 | 30.6 | 100 | 100 | 100 | 100 |  | 1.56 | 5/5 |  |  |
